Strand notation (5' to 3'): a small letter for the sugar, then the base; units joined by * are phosphorothioate-linked, units joined directly phosphodiester-linked; [ ] holds rarer units or linkages, { } end groups; capitals alone tell only the bases. k = constrained ethyl (cEt); [5mC] = 5-methylcytosine; d = 2'-deoxy (DNA)
Tests used:
Yap1 mRNA [1] = experiment: Antisense inhibition of human Yap1 in A-431 cells by cEt gapmers, single dose (Example 4, RTS4814); type: cell-based; settings: A-431 cells, 5,000 cells per well, free uptake, 2,000 nM, approximately 48 hours, RTS4814, normalized to RIBOGREEN
Protocol: Modified oligonucleotides were designed to target a Yap1 nucleic acid and were tested for their effect on Yap1 mRNA level in vitro. The modified oligonucleotides were tested in a series of experiments that had similar culture conditions. Cultured A-431 cells at a density of 5,000 cells per well were treated using free uptake with 2,000 nM of modified oligonucleotide. After a treatment period of approximately 48 hours, RNA was isolated from the cells and Yap1 mRNA levels were measured by quantitative real-time RTPCR. Human primer probe set RTS4814 was used to measure mRNA levels. Yap1 mRNA levels were normalized to total RNA content, as measured by RIBOGREEN®. Results are presented in the tables below as percent control of the amount of Yap1 mRNA relative to untreated control cells (% UTC). The modified oligonucleotides with percent control values marked with an asterisk (*) target the amplicon region of the primer probe set. Additional assays may be used to measure the potency and efficacy of the modified oligonucleotides targeting the amplicon region.
The newly designed modified oligonucleotides in the Tables below were designed as 3-10-3 cEt gapmers. The gapmers are 16 nucleosides in length, wherein the central gap segment comprises of ten 2′-deoxynucleosides and is flanked by wing segments on the 5′ direction and the 3′ direction comprising three nucleosides each. Each nucleoside in the 5′ wing segment and each nucleoside in the 3′ wing segment has a cEt sugar modification. The internucleoside linkages throughout each gapmer are phosphorothioate (P═S) linkages. All cytosine residues throughout each gapmer are 5-methylcytosines.
“Start site” indicates the 5′-most nucleoside to which the gapmer is targeted in the human gene sequence. “Stop site” indicates the 3′-most nucleoside to which the gapmer is targeted human gene sequence. […] Activity of the modified oligonucleotide may be defined in a different experiment.

Yap1 mRNA [2] = experiment: Dose-dependent inhibition of human Yap1 in A-431 cells (Example 7, 10,000 cells per well, RTS36584); type: cell-based; settings: free uptake
Outline: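 A-431 cells at 10,000 per well received modified oligonucleotides by free uptake at several doses. After about 48 hours, Yap1 mRNA was quantified with primer-probe set RTS36584, normalized to RIBOGREEN total RNA and expressed as % untreated control. IC50 came from linear regression on a log/linear plot.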

[3] = Table 16, Yap1 mRNA relative to untreated control cells
[4] = Table 15, Yap1 mRNA relative to untreated control, * = targets amplicon region of primer probe set
[5] = Table 61, 15.6 nM, A-431 cells 10,000 cells per well, 48 hours
[6] = Table 61, 62.5 nM, A-431 cells 10,000 cells per well, 48 hours
[7] = Table 61, 4000.00 nM, A-431 cells 10,000 cells per well, 48 hours
[8] = Table 61, A-431 cells 10,000 cells per well
[9] = 15.6 nM, A-431 cells, 10,000 cells per well, approximately 48 hours
[10] = 62.5 nM, A-431 cells, 10,000 cells per well, approximately 48 hours
[11] = 4000.00 nM, A-431 cells, 10,000 cells per well, approximately 48 hours
[12] = A-431 cells, approximately 48 hours, linear regression on log/linear plot

“1074946 (antisense k[5mC]*k[5mC]*kA*dA*dA*dA*d[5mC]*d[5mC]*d[5mC]*dT*dT*dT*dG*kG*kT*k[5mC]) [Compound 1074946]” was tested, and the “YAP1 (% UTC)” value (Yap1 mRNA [1]; [3]) was 109 % UTC.
With “1074849 (kT*kG*kT*dT*dA*dT*dG*dA*dT*dA*dG*dG*d[5mC]*kA*k[5mC]*kA; antisense) [Compound 1074849]” the “YAP1 (% UTC)” value (Yap1 mRNA [1]; [4]) was 18 % UTC.
With “1074850 (antisense kT*kT*kG*dT*dT*dA*dT*dG*dA*dT*dA*dG*dG*k[5mC]*kA*k[5mC]) [Compound 1074850]” the “YAP1 (% UTC)” value (Yap1 mRNA [1]; [3]) was 5 % UTC.
In the case of “1075906 (k[5mC]*k[5mC]*kT*d[5mC]*dA*dA*dT*dA*d[5mC]*dA*dG*dA*dT*kG*kA*kA; antisense) [Compound 1075906]”, the “YAP1 (% UTC)” value (Yap1 mRNA [1]; [3]) is reported as 39 % UTC.
“1075521 (kA*kA*kA*dT*d[5mC]*dG*dA*dG*dG*d[5mC]*dG*dA*dA*kT*k[5mC]*kT; antisense) [Compound 1075521]” was tested, and the “YAP1 (% UTC)” value (Yap1 mRNA [1]; [4]) was 65 % UTC.
“1074304 (antisense k[5mC]*kT*kG*d[5mC]*d[5mC]*dG*dA*dA*dG*d[5mC]*dA*dG*dT*kT*k[5mC]*kT) [Compound 1074304]” was tested, and the “YAP1 (% UTC)” value (Yap1 mRNA [1]; Table 14, Yap1 mRNA relative to untreated control, * = targets amplicon region of primer probe set) was 109 % UTC.
With “958474 (kG*kT*kG*dT*d[5mC]*dT*d[5mC]*d[5mC]*dT*dT*dA*dG*dA*kT*k[5mC]*k[5mC]; antisense) [compound 958474]” the “Yap1 mRNA, % UTC” value (Yap1 mRNA [2]; [5]) was 63 % UTC, the “Yap1 mRNA, % UTC” value (Yap1 mRNA [2]; [6]) was 37 % UTC and the “Yap1 mRNA, % UTC” value (Yap1 mRNA [2]; [7]) was 11 % UTC. It also gave an IC50 (Yap1 mRNA [2]; [8]) of 30 nM.
“958585 (k[5mC]*kT*k[5mC]*dT*dA*dT*d[5mC]*dA*dA*dG*dG*dT*d[5mC]*k[5mC]*k[5mC]*k[5mC]; antisense) [compound 958585]” was tested, and the “Yap1 mRNA, % UTC” value (Yap1 mRNA [2]; [9]) was 95 % UTC, the “Yap1 mRNA, % UTC” value (Yap1 mRNA [2]; [10]) was 71 % UTC and the “Yap1 mRNA, % UTC” value (Yap1 mRNA [2]; [11]) was 17 % UTC. It also gave an IC50 (Yap1 mRNA [2]; [12]) of 200 nM.
In the case of “958795 (kT*kA*kT*dT*d[5mC]*d[5mC]*dG*d[5mC]*dA*dT*dT*dG*d[5mC]*k[5mC]*kT*kA; antisense) [compound 958795]”, the “Yap1 mRNA, % UTC” value (Yap1 mRNA [2]; [9]) is reported as 90 % UTC, the “Yap1 mRNA, % UTC” value (Yap1 mRNA [2]; [10]) is reported as 69 % UTC and the “Yap1 mRNA, % UTC” value (Yap1 mRNA [2]; [11]) is reported as 20 % UTC. It also gave an IC50 (Yap1 mRNA [2]; [12]) of 200 nM.
“958403 (antisense k[5mC]*kA*kG*dT*dT*dT*dA*dT*dG*dT*dA*dG*dT*kA*kG*kT) [compound 958403]” was tested, and the “Yap1 mRNA, % UTC” value (Yap1 mRNA [2]; Table 56, 15.6 nM, A-431 cells 10,000 cells per well, 48 hours) was 94 % UTC, the “Yap1 mRNA, % UTC” value (Yap1 mRNA [2]; Table 56, 62.5 nM, A-431 cells 10,000 cells per well, 48 hours) was 63 % UTC and the “Yap1 mRNA, % UTC” value (Yap1 mRNA [2]; Table 56, 4000.00 nM, A-431 cells 10,000 cells per well, 48 hours) was 12 % UTC. For the same substance, the IC50 (Yap1 mRNA [2]; Table 56, A-431 cells 10,000 cells per well) was 120 nM.
“958575 (kG*kG*k[5mC]*dT*dA*d[5mC]*dT*dG*dG*d[5mC]*dA*dA*dA*kT*kT*kA; antisense) [compound 958575]” was tested, and the “Yap1 mRNA, % UTC” value (Yap1 mRNA [2]; [9]) was 89 % UTC, the “Yap1 mRNA, % UTC” value (Yap1 mRNA [2]; [10]) was 58 % UTC and the “Yap1 mRNA, % UTC” value (Yap1 mRNA [2]; [11]) was 20 % UTC. The IC50 (Yap1 mRNA [2]; [12]) was 100 nM.
For “958484 (kG*k[5mC]*kA*dG*d[5mC]*dA*dA*dT*dG*dG*dA*d[5mC]*dA*kA*kG*kG; antisense) [compound 958484]”, the “Yap1 mRNA, % UTC” value (Yap1 mRNA [2]; [5]) was 77 % UTC, the “Yap1 mRNA, % UTC” value (Yap1 mRNA [2]; [6]) was 38 % UTC and the “Yap1 mRNA, % UTC” value (Yap1 mRNA [2]; [7]) was 4 % UTC. For the same substance, the IC50 (Yap1 mRNA [2]; [8]) was 50 nM.

Source: US11214803B2, “Modulators of YAP1 expression” (Ionis Pharmaceuticals, Inc., priority 2019, dated 2022)
